Where a SMILES comes first, the peptide text is derived from it.
Legend:
Assay in all cases: Invasion and protection assay in HeLa cells
Type in all cases: cell-based, Staphylococcus aureus
[1] = system: MRSA strain 2 (intracellular, HeLa cells); conditions: MRSA 2 strain in HeLa cells; 40 μM for 1 h
Protocol: (§1) The S. aureus ATCC 6538, MRSA strain 2 and MRSA strain 3 invasion assays were conducted as previously described (Colicchio R et al., Antimicrob Agents Chemother 2015; 59:7637-49; Spinosa M R et al. Infect Immun 2007; 75:3594-3603). HeLa cells (ATCC CCL-2) were used for the standard invasion and intracellular viability assays. The cells were cultured in DMEM with 2 mM L-glutamine. The cells were infected at a multiplicity of infection (MOI) of 50 for 1 h, washed twice with PBS1× to eliminate most of the extracellular bacteria, exposed to gentamicin (Sigma-Aldrich) to kill the remaining extracellular bacteria, and then destroyed with saponin (0.5%) to release the intracellular bacteria. To quantify the intracellular staphylococci released by the HeLa cells, the lysed cell suspension was plated on BHI agar, and the number of CFUs was counted the next day. When required, cells were re-incubated in the cell culture medium for various times (3 and 5 hours) after treatment with gentamicin. Treatment with gentamicin was conducted using 105 μM, a concentration 10 times higher than the MIC, for 30 minutes at 37° C. with 5% CO2. Cells were then washed thoroughly with PBS1× to remove the gentamicin and dead extracellular bacteria, and then lysed or re-incubated with medium. To evaluate the protection with the reduced peptide γ2 after treatment with gentamicin, the molecule was added to the sample at the final concentration of 40 µM for 1 hour, then washed twice with PBS1×, and finally destroyed with saponin. As the antibacterial activity of the reduced and oxidised peptide γ2 against S. aureus ATCC 6538 was very similar (Table 1), only the reduced form was used in the test. In all the experiments, the bacteria were centrifuged (60×g) on the cells to start the assay. The experiments were conducted in triplicate, and the data were expressed as mean±SD.

[2] = system: MRSA strain 3 (intracellular, HeLa cells); conditions: MRSA 3 strain in HeLa cells; 40 μM for 1 h; all times tested
Protocol: as §1

[3] = system: S. aureus ATCC 6538 (intracellular, HeLa cells); conditions: wild-type strain S. aureus ATCC 6538 in HeLa cells; 40 μM for 1 h; all times tested
Protocol: as §1

With `CC[C@H](C)[C@H](NC(=O)[C@H](CCC(N)=O)NC(=O)[C@H](CCCNC(=N)N)NC(=O)[C@H](CCCNC(=N)N)NC(=O)[C@H](CCCCN)NC(=O)[C@@H]1CCCN1C(=O)[C@H](CC(C)C)NC(=O)[C@H](CS)NC(C)=O)C(=O)NCC(=O)N[C@@H](CCCCN)C(=O)N[C@@H](CO)C(=O)N[C@@H](CO)C(=O)N[C@H](C(=O)N[C@@H](CCCNC(=N)N)C(=O)NCC(=O)N[C@@H](CCCNC(=N)N)C(=O)N[C@@H](CCCCN)C(=O)N[C@@H](CO)C(=O)N[C@@H](CS)C(=O)N[C@@H](CCCCN)C(=O)N[C@@H](CCCCN)C(N)=O)[C@@H](C)O` [Reduced peptide γ2] (Ac-CLPKRRQIGKSSTRGRKSCKK-NH2) the “viable intracellular bacteria (CFU)” value [1] was “bacteriostatic effect”, the “viable intracellular bacteria (CFU)” value [2] was “great reduction in viable intracellular bacteria” and the “viable intracellular bacteria (CFU)” value [3] was “great reduction in viable intracellular bacteria”.

— patent US20240417435A1, “DEFENSIN-DERIVED PEPTIDE WITH ANTIBACTERIAL ACTIVITY ALSO AGAINST MULTI-ANTIBIOTIC-RESISTANT BACTERIA” (priority 2021, published 2024)
